What was measured:
[1] = target: PI3KC3 (hVPS34) kinase (Homo sapiens (Human), UniProt Q8NEB9); experiment: PI3KC3 (hVPS34) kinase assay, ADP-Glo luminescence detection; type: biochemical; details: PI:PS lipid substrate, 60 min at 30° C., read-out: VPS34 IC50
Method: The PI3KC3 (hVPS34) kinase reactions utilize ATP and produce ADP as a byproduct. The ADP production is quantified by ADP-Glo luminescence detection. The PI3KC3 (hVPS34) kinase assay was performed by Reaction Biology Corp. (Malvern, Pa.).
This was a 3-step reaction: First, the kinase reaction with lipid substrate was carried out in the presence of ATP. The reaction was then quenched, and the remaining ATP depleted with ADP-Glo™ reagent. Finally, the ADP was converted to ATP, which is measured using a luciferase/luciferin reaction. The luminescence was converted into μM ADP production based on ADP standard curves. The nonlinear regression to obtain the standard curve and IC50 values were performed using Graphpad Prism software.
The substrate (Phosphatidylinositol (PI): Phosphatidylserine (PS)) was added to freshly prepared reaction buffer (40 mM Tris-HCl (pH7.5), 3 μM Orthovanadate, 20 mM MgCl2, 2 mM DTT, 0.05% CHAPS, 1% DMSO). The PI3KC3 (hVPS34) kinase was delivered into the substrate solution with gentle mixing. Compounds were delivered in 100% DMSO into the kinase reaction mixture by Acoustic technology (Echo550; nanoliter range). The reaction was incubated for 20 min at room temperature. ATP was delivered into the reaction mixture to initiate the reaction. After incubating the mixture for 60 min at 30° C., the reaction was quenched with ADP-Glo reagent (Promega ADP Glo Kinase Assay kit #V9102) and incubated for 40 min at room temperature. Detection mixture (Promega ADP Glo Kinase Assay kit #V9102) was added and the reaction was incubated for 30 minutes. Luminescence was measured.

[2] = target: PI3Kα (Homo sapiens (Human), UniProt P42336); experiment: PI3Kα inhibition, ATP to ADP conversion by ADP-Glo kinase activity assay; type: biochemical; details: 25 μM PIP2:PS, 60 μM ATP, reaction time 30 minutes
Method: Inhibition of PI3Kα—Quantification of ATP to ADP conversion as a measure of PI3Kα activity. Active PI3Kα (Life Technologies), in the presence or absence of PI3Kα inhibitor, was reacted with PIP2:PS (Life Technologies), a substrate specifically optimized for use with Class I PI3 kinases, and ultrapure ATP (Promega). The conversion of ATP to ADP by PI3Kα was measured as luminescence signal via Promega ADP-Glo kinase activity assay. Assay was validated using published PI3Kα inhibitors LY294002, PI-103, BYL719, and GDC0198 as well as a DMSO vehicle control.
Compounds were prepared at 100× final concentration using a 12-point, 1:3 serial-dilution in DMSO, with DMSO control as the 12th point. Compound was then diluted in HEPES buffer (25 mM HEPES pH 7.5, 1 mM EGTA, 0.3% CHAPS) prior to addition to PI3Kα. Active PI3Kα diluted to 0.24 ng/μL (1.1 nM) in (50 mM HEPES pH 7.5, 6 mM MgCl2, 1 mM EGTA, 200 mM NaCl, 0.03% CHAPS, 8 mM DTT) was incubated with compound for 0 hr and 3 hr prior to the start of the reaction. 25 μM PIP2:PS and 60 μM ATP were diluted from stock solution (25 mM HEPES pH 7.5, 1 mM EGTA, 0.3% CHAPS) and added to initiate the PI3Kα reaction. Reaction time was 30 minutes. ATP to ADP conversion was measured in Luminescence Counts on DTX880 Plate Reader (Beckman Coulter). The IC50 of the compounds were reported using the GraphPad Prism software. Analytical method was non-linear regression, 4-parameter curve fit with bottom fit to validated PI3Kα inhibitor reference controls and no top fit (floating top).

Sequence of PI3Kα (P42336 whole entry): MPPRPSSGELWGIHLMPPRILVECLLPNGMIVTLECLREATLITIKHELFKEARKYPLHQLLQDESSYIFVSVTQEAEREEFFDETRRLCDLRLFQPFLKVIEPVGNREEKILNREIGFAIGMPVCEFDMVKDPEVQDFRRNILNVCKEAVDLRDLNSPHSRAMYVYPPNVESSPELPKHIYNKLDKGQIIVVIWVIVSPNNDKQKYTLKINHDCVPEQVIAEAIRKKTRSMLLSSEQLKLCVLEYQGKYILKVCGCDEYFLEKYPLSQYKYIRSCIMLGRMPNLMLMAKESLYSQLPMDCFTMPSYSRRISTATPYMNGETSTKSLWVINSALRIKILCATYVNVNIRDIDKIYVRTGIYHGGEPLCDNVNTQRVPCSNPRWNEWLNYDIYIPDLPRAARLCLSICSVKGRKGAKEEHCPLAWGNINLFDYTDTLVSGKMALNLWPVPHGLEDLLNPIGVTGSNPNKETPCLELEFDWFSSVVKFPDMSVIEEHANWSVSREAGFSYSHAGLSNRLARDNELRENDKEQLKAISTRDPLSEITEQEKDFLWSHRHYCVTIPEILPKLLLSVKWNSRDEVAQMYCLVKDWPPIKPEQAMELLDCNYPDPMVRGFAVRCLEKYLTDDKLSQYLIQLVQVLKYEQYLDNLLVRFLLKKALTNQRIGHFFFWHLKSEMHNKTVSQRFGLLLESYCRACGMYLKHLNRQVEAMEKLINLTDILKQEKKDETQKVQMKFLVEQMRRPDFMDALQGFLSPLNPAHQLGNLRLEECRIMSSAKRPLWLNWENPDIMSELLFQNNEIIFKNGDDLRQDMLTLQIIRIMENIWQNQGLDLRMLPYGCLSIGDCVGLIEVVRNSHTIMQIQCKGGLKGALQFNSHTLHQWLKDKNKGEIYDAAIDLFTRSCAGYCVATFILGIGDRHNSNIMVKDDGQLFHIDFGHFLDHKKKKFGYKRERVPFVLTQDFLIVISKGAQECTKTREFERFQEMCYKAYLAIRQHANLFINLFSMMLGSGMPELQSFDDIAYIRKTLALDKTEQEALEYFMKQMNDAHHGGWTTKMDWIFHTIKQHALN
Sequence of PI3Kα (P27986 whole entry partner): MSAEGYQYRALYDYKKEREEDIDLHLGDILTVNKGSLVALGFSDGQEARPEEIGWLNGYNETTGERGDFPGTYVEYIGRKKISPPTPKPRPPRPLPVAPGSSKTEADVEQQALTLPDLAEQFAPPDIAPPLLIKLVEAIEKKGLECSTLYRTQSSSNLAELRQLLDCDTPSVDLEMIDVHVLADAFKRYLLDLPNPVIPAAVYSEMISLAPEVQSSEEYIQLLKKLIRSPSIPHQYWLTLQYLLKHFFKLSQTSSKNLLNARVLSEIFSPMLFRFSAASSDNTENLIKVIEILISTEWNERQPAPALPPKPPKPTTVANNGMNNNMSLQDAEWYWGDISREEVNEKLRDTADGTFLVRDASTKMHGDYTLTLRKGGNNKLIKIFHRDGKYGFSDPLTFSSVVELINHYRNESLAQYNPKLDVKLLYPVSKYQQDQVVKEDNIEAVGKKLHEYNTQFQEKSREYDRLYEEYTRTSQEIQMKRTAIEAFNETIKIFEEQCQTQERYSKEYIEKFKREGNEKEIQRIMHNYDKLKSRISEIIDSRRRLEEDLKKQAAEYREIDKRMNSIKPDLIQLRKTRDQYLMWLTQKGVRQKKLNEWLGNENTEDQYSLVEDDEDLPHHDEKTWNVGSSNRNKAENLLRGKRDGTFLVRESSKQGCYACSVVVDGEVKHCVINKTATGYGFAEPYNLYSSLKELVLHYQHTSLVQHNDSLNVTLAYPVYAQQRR
Sequence of PI3KC3 (hVPS34) kinase (Q8NEB9 whole entry): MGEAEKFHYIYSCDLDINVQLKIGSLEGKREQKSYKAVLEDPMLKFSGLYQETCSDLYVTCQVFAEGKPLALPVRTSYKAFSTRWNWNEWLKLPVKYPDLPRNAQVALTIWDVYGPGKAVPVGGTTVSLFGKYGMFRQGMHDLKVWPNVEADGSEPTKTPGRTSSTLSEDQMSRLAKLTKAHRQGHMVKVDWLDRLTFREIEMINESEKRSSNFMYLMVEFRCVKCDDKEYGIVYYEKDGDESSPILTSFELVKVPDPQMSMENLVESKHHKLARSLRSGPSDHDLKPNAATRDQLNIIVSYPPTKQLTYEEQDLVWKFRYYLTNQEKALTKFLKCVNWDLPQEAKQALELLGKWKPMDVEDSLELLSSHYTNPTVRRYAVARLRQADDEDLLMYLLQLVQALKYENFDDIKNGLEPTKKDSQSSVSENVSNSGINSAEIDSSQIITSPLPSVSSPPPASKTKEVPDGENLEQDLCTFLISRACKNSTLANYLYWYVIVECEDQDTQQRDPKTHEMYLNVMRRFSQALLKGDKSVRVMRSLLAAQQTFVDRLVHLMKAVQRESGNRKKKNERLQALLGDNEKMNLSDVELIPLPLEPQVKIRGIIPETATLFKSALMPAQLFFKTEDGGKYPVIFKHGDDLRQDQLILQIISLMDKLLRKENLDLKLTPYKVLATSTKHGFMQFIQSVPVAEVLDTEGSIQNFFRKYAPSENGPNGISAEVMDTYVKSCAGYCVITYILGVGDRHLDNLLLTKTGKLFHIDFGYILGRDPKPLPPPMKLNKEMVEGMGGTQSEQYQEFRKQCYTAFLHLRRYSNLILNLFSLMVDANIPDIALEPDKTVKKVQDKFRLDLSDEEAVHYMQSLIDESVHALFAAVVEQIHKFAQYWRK

`Nc1ncc(-c2cc(N3CCOCC3)cc(S(=O)(=O)[C@@H]3CCOC3)c2)s1` [Example 1, (R)-5-(3-morpholino-5-((tetrahydrofuran-3-yl)sulfonyl)phenyl)thiazol-2-amine] gave an IC50 [1] of 3.8 µM and an IC50 [2] of 0.75 µM.

`Nc1nc(C(F)(F)F)c(-c2cc(N3CCOCC3)cc(S(=O)(=O)[C@@H]3CCOC3)c2)s1` [Example 2, (R)-5-(3-morpholino-5-((tetrahydrofuran-3-yl)sulfonyl)phenyl)-4-(trifluoromethyl)thiazol-2-amine] gave an IC50 [1] of 2.1 µM and an IC50 [2] of 0.74 µM.

`Nc1nnc(-c2cc(N3CCOCC3)cc(S(=O)(=O)c3ccccc3)c2)s1` [Example 3, 5-(3-morpholino-5-(phenylsulfonyl)phenyl)-1,3,4-thiadiazol-2-amine] was tested, and the IC50 [1] was 1.6 µM and the IC50 [2] was 2.2 µM.

`Nc1nsc(-c2cc(N3CCOCC3)cc(S(=O)(=O)c3ccccc3)c2)n1` [Example 4, 5-(3-morpholino-5-(phenylsulfonyl)phenyl)-1,2,4-thiadiazol-3-amine] was tested, and the IC50 [1] was 2.2 µM and the IC50 [2] was 11.2 µM.

In the case of `Nc1ncc(-c2cc(S(=O)(=O)c3ccccc3)cc(N3CCOCC3)n2)s1` [Example 5, 5-(6-morpholino-4-(phenylsulfonyl)pyridin-2-yl)thiazol-2-amine], the IC50 [1] is reported as 0.081 µM and the IC50 [2] is reported as 0.502 µM.

For `Nc1nc(C(F)(F)F)c(-c2cc(S(=O)(=O)c3ccccc3)cc(N3CCOCC3)n2)s1` [Example 6, 5-(6-morpholino-4-(phenylsulfonyl)pyridin-2-yl)-4-(trifluoromethyl)thiazol-2-amine], the IC50 [1] was 0.287 µM and the IC50 [2] was 5.24 µM.

`Cc1nc(N)sc1-c1cc(S(=O)(=O)c2ccccc2)cc(N2CCOCC2)n1` [Example 7, 4-methyl-5-(6-morpholino-4-(phenylsulfonyl)pyridin-2-yl)thiazol-2-amine] was tested, and the IC50 [1] was 0.019 µM and the IC50 [2] was 2.3 µM.

`Nc1ncc(-c2cc(Oc3ccccc3)cc(N3CCOCC3)n2)s1` [Example 8, 5-(6-morpholino-4-phenoxypyridin-2-yl)thiazol-2-amine] gave an IC50 [1] of 0.15 µM and an IC50 [2] of 3.42 µM.

From patent publication US11236079B2, “Morpholine derivates as inhibitors of Vps34” (Neuropore Therapies, Inc., priority 2018, dated 2022)
